Entries after “also recorded” stand apart in the source; their conditions may differ.
Assays:
BCRP = system: BCRP; parameters: method as in PMID 24627218; conditions: vesicles with BCRP; cited from earlier work
[1] = system: MDCK cells and other traditional in vitro systems; conditions: cited from earlier work
P-gp (MDR1) = target: T1, P-gp (MDR1) (Homo sapiens, UniProt P08183); experiment: Bidirectional permeability in gMDCK cells overexpressing human P-gp (gMDCK-MDR1); type: in vitro ADME; conditions: human, MDCK-MDR1, pH 7.4; gMDCK-MDR1
T1 construct: expressed in transfected cells; host or cells: gMDCK (P-gp-knockout Madin-Darby Canine Kidney cells), puromycin selection
T1 sequence (P08183 whole entry): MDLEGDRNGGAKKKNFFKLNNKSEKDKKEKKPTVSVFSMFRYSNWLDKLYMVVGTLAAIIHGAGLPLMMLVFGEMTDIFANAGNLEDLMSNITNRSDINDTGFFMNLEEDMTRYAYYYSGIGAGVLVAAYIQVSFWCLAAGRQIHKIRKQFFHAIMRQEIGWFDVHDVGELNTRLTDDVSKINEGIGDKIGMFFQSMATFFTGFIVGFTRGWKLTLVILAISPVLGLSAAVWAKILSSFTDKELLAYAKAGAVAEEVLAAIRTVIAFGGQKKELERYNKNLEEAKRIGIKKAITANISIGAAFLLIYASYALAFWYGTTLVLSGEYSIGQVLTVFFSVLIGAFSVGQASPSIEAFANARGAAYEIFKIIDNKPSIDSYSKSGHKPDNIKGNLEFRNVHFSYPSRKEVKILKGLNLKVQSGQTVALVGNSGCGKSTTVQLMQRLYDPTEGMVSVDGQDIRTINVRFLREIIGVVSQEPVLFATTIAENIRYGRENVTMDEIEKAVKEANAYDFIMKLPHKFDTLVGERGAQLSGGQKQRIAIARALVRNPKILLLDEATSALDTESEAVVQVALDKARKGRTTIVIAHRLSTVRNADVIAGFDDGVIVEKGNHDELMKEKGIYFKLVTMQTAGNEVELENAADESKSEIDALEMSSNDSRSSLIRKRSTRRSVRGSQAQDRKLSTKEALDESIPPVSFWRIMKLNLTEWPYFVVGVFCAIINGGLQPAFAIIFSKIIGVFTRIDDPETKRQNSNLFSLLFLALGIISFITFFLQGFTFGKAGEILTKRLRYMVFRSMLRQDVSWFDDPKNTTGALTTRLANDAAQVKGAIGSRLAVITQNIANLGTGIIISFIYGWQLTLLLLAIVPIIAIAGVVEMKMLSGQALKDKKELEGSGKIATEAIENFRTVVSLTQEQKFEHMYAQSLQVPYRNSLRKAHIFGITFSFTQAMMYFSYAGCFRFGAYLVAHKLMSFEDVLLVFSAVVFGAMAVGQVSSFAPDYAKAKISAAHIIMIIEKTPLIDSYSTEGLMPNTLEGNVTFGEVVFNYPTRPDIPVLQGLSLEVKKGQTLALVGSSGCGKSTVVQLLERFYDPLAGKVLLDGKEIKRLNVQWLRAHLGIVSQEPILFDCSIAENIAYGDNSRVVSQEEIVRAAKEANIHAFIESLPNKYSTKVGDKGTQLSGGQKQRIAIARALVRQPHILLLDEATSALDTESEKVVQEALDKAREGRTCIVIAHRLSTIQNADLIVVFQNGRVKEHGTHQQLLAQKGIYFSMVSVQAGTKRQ
Method: (§1) gMDCK cells were maintained in Dulbecco’s Modified Eagle’s Medium (DMEM) supplemented with Gibco’s MEM amino acids solution (1 X), penicillin (100 units/mL), streptomycin ([…]), and 10% fetal bovine serum and in a humidified, 37 °C, 5% CO2 environment as previously described. Efflux transporter-expressing gMDCK cells, gMDCK-P-gp and gMDCK-BCRP, were cultured in the above-mentioned medium with addition of puromycin (2 µg/mL). All cells were passaged at approximately 80% confluency in T-175 flasks. For permeability assays, gMDCK, gMDCK-P-gp, and gMDCK-BCRP cells were seeded on 96 transwell plates (approximately 40,000 cells/well) and allowed to grow for 48 h in a 37 °C, 5% CO2 environment. Digitonin (10–40 mg/L) was included in some experiments to loosen tight junctions to explore paracellular permeability. TEER values were measured on the day of the experiment using an EVOM^TM Auto (World Precision Instruments, Sarasota, FL, USA).
(§2) Lenalidomide dosing solutions (1–500 µM) were diluted from DMSO stock (500 mM) with HEPES-buffered HBSS (with Ca^2+ and Mg^2+, 10 mM HEPES, pH 7.4) + 20 µM Lucifer yellow resulting in a final DMSO content of 0.2%. Lucifer yellow was measured fluorometrically (Ex/Em 428/532 nm) to assess tight junctions/paracellular transport. Permeability of lenalidomide was assessed bidirectionally in both in vitro models over three hours, and cell monolayers were collected at the end of the experiment.
(§3) Briefly, for assessing apical to basolateral (A to B) permeability, 150 uL of lenalidomide dosing solutions was added to apical side of the transwell, and 250 uL of HEPES-buffered HBSS without Lucifer yellow was added to basolateral side. For evaluating basolateral to apical (B to A) permeability, 250 uL of dosing solutions was added to the basolateral side, and 150 uL of HEPES-buffered HBSS without Lucifer yellow was added to the apical side. An amount of 10 µL was sampled from the dosing side of the transwell at the beginning and the end of the experiment. An amount of 25 µL was sampled from the receiver side at 1, 2, and 3 h.
(§4) Apparent permeability (Papp) was calculated according to the following equation: Papp = (dQ/dt)/(A * C), where dQ/dt is the amount of drug that crosses the membrane per unit of time, A is the surface area of the membrane through which the drug is permeating (0.143 cm^2), and C is the initial concentration added to cells. The efflux ratio was calculated according to the following equation:(4) Efflux ratio= Papp basolateral to apical/Papp apical to basolateral

human P-gp = target: T2, human P-gp (Homo sapiens, UniProt P08183); experiment: as above; type: in vitro ADME; conditions: gMDCK P-gp overexpressing cells and organoids
T2 construct: expressed in transfected cells; host or cells: gMDCK (P-gp-knockout Madin-Darby Canine Kidney cells), puromycin selection
T2 sequence (P08183 whole entry): as above
Method: as §1, §2, §3, §4

Q: For `Nc1cccc2c1CN(C1CCC(=O)NC1=O)C2=O` (stereo not shown) [Lenalidomide], which BCRP substrate (BCRP) is on record?
A: not a BCRP substrate

Q: And the BCS class [1]?
A: 3

Q: And the In vitro permeability [1]?
A: Low

Q: What about the Papp A→B at 3 h (P-gp (MDR1)) of the same compound?
A: 0.2 ×10⁻⁶ cm/s

Q: And the Papp B→A at 3 h (P-gp (MDR1))?
A: 2.8 ×10⁻⁶ cm/s

Q: And the efflux ratio at 3 h (P-gp (MDR1))?
A: 14

Q: And the P-gp substrate (human P-gp)?
A: substrate for both transporters; also recorded: substrate of both P-gp and BCRP
